Reference: BigSolDB 2.1

Which solubility (mole fraction) (in THF, 299.4 K) does the source give for Clc1ccc2c(Cl)ccnc2c1 here?
Its solubility (mole fraction) is 0.0683.

What about the solubility (mole fraction) (in THF, 303.2 K) of the same compound?
Its solubility (mole fraction) is 0.0701.

What about the solubility (mole fraction) (in THF, 309.1 K) of the same compound?
The solubility (mole fraction) was 0.0745.

And the solubility (mole fraction) (in THF, 313.3 K)?
The solubility (mole fraction) was 0.081.

And the solubility (mole fraction) (in THF, 318.1 K)?
The solubility (mole fraction) was 0.0887.

What about the solubility (mole fraction) (in THF, 323.2 K) of the same compound?
Its solubility (mole fraction) is 0.1.

And the solubility (mole fraction) (in THF, 328.3 K)?
The solubility (mole fraction) was 0.119.

And the solubility (mole fraction) (in THF, 333.4 K)?
Its solubility (mole fraction) is 0.14.

And the solubility (mole fraction) (in acetone, 299.2 K)?
Its solubility (mole fraction) is 0.0591.

And the solubility (mole fraction) (in acetone, 303.2 K)?
The solubility (mole fraction) was 0.0614.

And the solubility (mole fraction) (in acetone, 309.1 K)?
The solubility (mole fraction) was 0.0658.

And the solubility (mole fraction) (in acetone, 313.3 K)?
Its solubility (mole fraction) is 0.0725.

And the solubility (mole fraction) (in acetone, 318.1 K)?
Its solubility (mole fraction) is 0.0818.

What about the solubility (mole fraction) (in acetone, 323.2 K) of the same compound?
The solubility (mole fraction) was 0.0954.

And the solubility (mole fraction) (in acetone, 328.3 K)?
The solubility (mole fraction) was 0.113.

What about the solubility (mole fraction) (in acetonitrile, 299.8 K) of the same compound?
The solubility (mole fraction) was 0.00603.

What about the solubility (mole fraction) (in acetonitrile, 303.2 K) of the same compound?
Its solubility (mole fraction) is 0.00814.

What about the solubility (mole fraction) (in acetonitrile, 308.1 K) of the same compound?
Its solubility (mole fraction) is 0.0127.

What about the solubility (mole fraction) (in acetonitrile, 313.3 K) of the same compound?
Its solubility (mole fraction) is 0.0208.

And the solubility (mole fraction) (in acetonitrile, 318.1 K)?
The solubility (mole fraction) was 0.0307.

What about the solubility (mole fraction) (in acetonitrile, 323.2 K) of the same compound?
Its solubility (mole fraction) is 0.0489.

What about the solubility (mole fraction) (in acetonitrile, 328.3 K) of the same compound?
The solubility (mole fraction) was 0.0788.

What about the solubility (mole fraction) (in acetonitrile, 333.4 K) of the same compound?
The solubility (mole fraction) was 0.13.

And the solubility (mole fraction) (in ethanol, 299.8 K)?
The solubility (mole fraction) was 0.0113.

What about the solubility (mole fraction) (in ethanol, 303.2 K) of the same compound?
The solubility (mole fraction) was 0.0145.

And the solubility (mole fraction) (in ethanol, 308.1 K)?
Its solubility (mole fraction) is 0.0224.

And the solubility (mole fraction) (in ethanol, 313.3 K)?
Its solubility (mole fraction) is 0.0364.

And the solubility (mole fraction) (in ethanol, 318.1 K)?
The solubility (mole fraction) was 0.0564.

What about the solubility (mole fraction) (in ethanol, 323.2 K) of the same compound?
Its solubility (mole fraction) is 0.0886.

And the solubility (mole fraction) (in ethanol, 328.3 K)?
The solubility (mole fraction) was 0.135.

What about the solubility (mole fraction) (in ethanol, 333.4 K) of the same compound?
Its solubility (mole fraction) is 0.208.

And the solubility (mole fraction) (in water, 298 K)?
The solubility (mole fraction) was 2.84e-05.

What about the solubility (mole fraction) (in water, 303.3 K) of the same compound?
The solubility (mole fraction) was 2.9e-05.

And the solubility (mole fraction) (in water, 308.2 K)?
Its solubility (mole fraction) is 3.01e-05.

And the solubility (mole fraction) (in water, 313.1 K)?
Its solubility (mole fraction) is 3.21e-05.

What about the solubility (mole fraction) (in water, 318.3 K) of the same compound?
The solubility (mole fraction) was 3.45e-05.

And the solubility (mole fraction) (in water, 323.3 K)?
The solubility (mole fraction) was 3.88e-05.

What about the solubility (mole fraction) (in water, 327.7 K) of the same compound?
Its solubility (mole fraction) is 4.2e-05.

And the solubility (mole fraction) (in water, 333.3 K)?
Its solubility (mole fraction) is 4.85e-05.
